Data from ChEMBL document CHEMBL1124168 (J Med Chem, 1988).

Assays:
Canis familiaris [1] = test: Antagonist activity was measured by maximum urine osmolality with a dose of 100 ug/kg peptide after pretreatment with indomethacin ([…]) in dog; type: functional, Canis lupus familiaris
Canis familiaris [2] = test: Antagonist activity was measured by maximum urine flow with a dose of 100 ug/kg peptide; type: functional, Canis lupus familiaris
Vasopressin V2 receptor [3] = target: Vasopressin V2 receptor (Sus scrofa, UniProt P32307); test: In vitro antagonist activity was measured by inhibition of vasopressin-stimulated adenylate cyclase in renal medullary preparation in pig; type: functional, tissue-based, Renal medulla
Rattus norvegicus [4] = test: […] antagonist activity is measured by dose required to lower urine osmolality to 300 mOsm/kg of H2O; type: functional
Vasopressin V2 receptor [5] = target: Vasopressin V2 receptor (Homo sapiens, UniProt P30518); test: In vitro antagonist activity was measured by inhibition of vasopressin-stimulated adenylate cyclase in renal medullary preparation in human; type: functional, tissue-based, Renal medulla
Sus scrofa = species on record: Sus scrofa; test: (§1) In vitro antagonist activity was measured by inhibition of binding of [3H]LVP to renal medullary membrane preparation in pig; type: functional; settings: Renal medulla
Canis familiaris [6] = test: Antagonist activity was measured by maximum urine osmolality with a dose of 100 ug/kg peptide after pretreatment with indomethacin in dog; type: functional, Canis lupus familiaris
Rattus norvegicus [7] = test: […] antagonist activity was measured by dose required to lower urine osmolality to 300 mOsm/kg of H2O; type: functional
Canis familiaris [8] = test: Agonist activity was measured as maximum urine osmolality with a dose of 100 ug/kg peptide after pretreatment with indomethacin in dog
Adenylate cyclase = test: In vitro antagonist activity was measured by inhibition of vasopressin-stimulated adenylate cyclase in renal medullary preparation in human
[9] = target: Vasopressin V2 receptor (Sus scrofa) (UniProt P32307); test: as §1; type: tissue-based; settings: Renal medulla
Sequence of Vasopressin V2 receptor (Sus scrofa) (P32307 whole entry): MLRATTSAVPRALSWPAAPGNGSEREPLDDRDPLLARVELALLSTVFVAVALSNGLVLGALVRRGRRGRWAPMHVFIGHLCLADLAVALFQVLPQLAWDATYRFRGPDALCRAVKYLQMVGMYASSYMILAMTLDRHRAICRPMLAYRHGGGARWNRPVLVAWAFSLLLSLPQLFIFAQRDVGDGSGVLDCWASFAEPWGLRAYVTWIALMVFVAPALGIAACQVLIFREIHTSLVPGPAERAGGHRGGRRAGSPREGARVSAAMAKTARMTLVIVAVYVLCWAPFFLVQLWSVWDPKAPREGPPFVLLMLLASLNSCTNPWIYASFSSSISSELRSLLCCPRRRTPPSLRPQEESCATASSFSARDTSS

Sequence of Vasopressin V2 receptor (Sus scrofa, UniProt P32307) (P32307 whole entry): as above
Sequence of Vasopressin V2 receptor (Homo sapiens, UniProt P30518) (P30518 whole entry): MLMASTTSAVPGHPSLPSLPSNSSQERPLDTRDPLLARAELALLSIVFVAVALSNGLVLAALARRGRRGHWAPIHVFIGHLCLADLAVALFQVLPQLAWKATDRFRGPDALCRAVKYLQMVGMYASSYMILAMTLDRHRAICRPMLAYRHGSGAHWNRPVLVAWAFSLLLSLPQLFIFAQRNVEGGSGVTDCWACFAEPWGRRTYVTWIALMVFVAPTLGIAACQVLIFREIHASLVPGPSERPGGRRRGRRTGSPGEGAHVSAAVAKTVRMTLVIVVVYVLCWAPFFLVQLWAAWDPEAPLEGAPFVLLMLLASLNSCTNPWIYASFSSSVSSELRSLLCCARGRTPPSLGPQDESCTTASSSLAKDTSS

In the case of N=C(N)NCCC[C@H](NC(=O)[C@@H]1CCCN1C(=O)[C@@H]1CSSC[C@H](N)C(=O)N[C@@H](Cc2ccc(O)cc2)C(=O)N[C@@H](Cc2ccccc2)C(=O)N[C@@H](CCC(N)=O)C(=O)N[C@@H](CC(N)=O)C(=O)N1)C(=O)NCC(N)=O [VASOPRESSIN], the U osm (Canis familiaris [1]) is reported as 939 mOsmol kg-1 and the Volume (Canis familiaris [2]) is reported as 1.4 mL/min.
Work on CCOc1ccc(C[C@H]2NC(=O)CC3(CCCCC3)SSCC(C(=O)N[C@@H](CCCN=C(N)N)C(N)=O)NC(=O)[C@H](CC(N)=O)NC(=O)[C@H](C(C)C)NC(=O)[C@H](Cc3ccccc3)NC2=O)cc1 (some centres not stated) yielded a Ki (Vasopressin V2 receptor [3]) of 2.9 nM, an ED300 (Rattus norvegicus [4]) of 0.058 mg/kg and a Ki (Vasopressin V2 receptor [5]) of 1.5 nM. For the same compound, the Kb (Sus scrofa) was 10.2 nM.
CCOc1ccc(C[C@H]2NC(=O)CC3(CCCCC3)CCC[C@@H](C(=O)N3CCC[C@H]3C(=O)N[C@@H](CCCN=C(N)N)C(N)=O)NC(=O)[C@H](CC(N)=O)NC(=O)[C@H](C(C)C)NC(=O)[C@H](Cc3ccccc3)NC2=O)cc1 [listing 1 of 2 here] was tested, and the Ki (Vasopressin V2 receptor [3]) was 3.5 nM and the Ki (Vasopressin V2 receptor [5]) was 2.7 nM.
For CCOc1ccc(C[C@H]2NC(=O)CC3(CCCCC3)SSCC(C(=O)N3CCC[C@@H]3C(=O)N[C@@H](CCCN=C(N)N)C(N)=O)NC(=O)[C@H](CC(N)=O)NC(=O)[C@H](C(C)C)NC(=O)[C@H](Cc3ccccc3)NC2=O)cc1 (some centres not stated), the Kb (Sus scrofa) was 11.8 nM.
In the case of CCOc1ccc(C[C@H]2NC(=O)CC3(CCCCC3)SSCC(C(=O)N[C@@H](CCCN=C(N)N)C(=O)N[C@H](CCCN=C(N)N)C(N)=O)NC(=O)[C@H](CC(N)=O)NC(=O)[C@H](C(C)C)NC(=O)[C@H](Cc3ccccc3)NC2=O)cc1 (some centres not stated), the Ki (Vasopressin V2 receptor [3]) is reported as 1.6 nM, the U osm (Canis familiaris [6]) is reported as 429 mOsmol kg-1 and the Ki (Vasopressin V2 receptor [5]) is reported as 2.4 nM. For the same compound, the ED300 (Rattus norvegicus [7]) was 0.0135 mg/kg, the Volume (Canis familiaris [2]) was 0.76 mL/min and the Kb (Sus scrofa) was 5.4 nM.
CCOc1ccc(C[C@H]2NC(=O)CC3(CCCCC3)CCCC(C(=O)N3CCC[C@@H]3C(=O)N[C@@H](CCCN=C(N)N)C(N)=O)NC(=O)[C@H](CC(N)=O)NC(=O)[C@H](C(C)C)NC(=O)[C@H](Cc3ccccc3)NC2=O)cc1 (some centres not stated) was tested, and the Kb (Sus scrofa) was 7.1 nM.
CCOc1ccc(C[C@H]2NC(=O)CC3(CCCCC3)SSC[C@@H](C(=O)N3CCC[C@H]3C(=O)N[C@@H](CCCN=C(N)N)C(N)=O)NC(=O)[C@H](CC(N)=O)NC(=O)[C@H](C(C)C)NC(=O)[C@H](Cc3ccccc3)NC2=O)cc1 was tested, and the U osm (Canis familiaris [6]) was 1302 mOsmol kg-1, the ED300 (Rattus norvegicus [7]) was 0.0084 mg/kg and the Volume (Canis familiaris [2]) was 0.07 mL/min.
Compound CCOc1ccc(C[C@H]2NC(=O)CC3(CCCCC3)CCC[C@@H](C(=O)N3CCC[C@H]3C(=O)N[C@@H](CCCN=C(N)N)C(N)=O)NC(=O)[C@H](CC(N)=O)NC(=O)[C@H](C(C)C)NC(=O)[C@H](Cc3ccccc3)NC2=O)cc1 [listing 2 of 2 here] has an ED300 (Rattus norvegicus [7]) of 0.0122 mg/kg, a Volume (Canis familiaris [2]) of 0.69 mL/min and a U osm (Canis familiaris [8]) of 319 mOsmol kg-1.
With COc1ccc2c(c1)c(CC(=O)O)c(C)n2C(=O)c1ccc(Cl)cc1 [INDOMETHACIN] the U osm (Canis familiaris [6]) was 92 mOsmol kg-1 and the Volume (Canis familiaris [2]) was 2.8 mL/min.
In the case of CCOc1ccc(C[C@H]2NC(=O)CC3(CCCCC3)CCCC(C(=O)N[C@@H](CCCN=C(N)N)C(=O)N[C@H](CCCN=C(N)N)C(N)=O)NC(=O)[C@H](CC(N)=O)NC(=O)[C@H](C(C)C)NC(=O)[C@H](Cc3ccccc3)NC2=O)cc1 (some centres not stated), the U osm (Canis familiaris [6]) is reported as 56 mOsmol kg-1, the Ki (Vasopressin V2 receptor [5]) is reported as 3.9 nM and the ED300 (Rattus norvegicus [7]) is reported as 0.009 mg/kg. The Volume (Canis familiaris [2]) was 4.6 mL/min and the Kb (Sus scrofa) was 5.1 nM.
For CCOc1ccc(C[C@H]2NC(=O)CC3(CCCCC3)CCCC(C(=O)N[C@@H](CCCN=C(N)N)C(N)=O)NC(=O)[C@H](CC(N)=O)NC(=O)[C@H](C(C)C)NC(=O)[C@H](Cc3ccccc3)NC2=O)cc1 (some centres not stated), the Ki (Adenylate cyclase) was 4.4 nM, the Kb [9] was 14 nM and the ED300 (Rattus norvegicus [4]) was 0.028 mg/kg.
